Laboratory results taken from US10745365B2, “Luminogenic and fluorogenic compounds and methods to detect molecules or conditions” (Promega Corporation, priority 2005, dated 2020).

What was measured:
[1] = tested on: thermostable luciferase (Luc 146-1H2); assay: Light emission of thermostable luciferase with luciferin derivatives; type: biochemical
Protocol: This stock was used to produce enzyme stock solution having of 200 μg/ml enzyme solution in 1 mg/ml BSA, 200 mM HEPES buffer, pH 8.0, 20 mM MgCl2.
Solutions were made using a 1 M DTT solution, pH adjusted to 8.0, a 20 mM Coenzyme A solution in water (both described in examples above), a 100 mM ATP solution and water to create the following solutions: Sol′ A, 100 μM ATP; Sol′B, 100 μM ATP, 4 mM Coenzyme A; Sol′n C, 100 μM ATP, 400 mM DTT, and; Sol′n D, 100 μM ATP, 4 mM Coenzyme A and 400 mM DTT.
(§1) After assembly, the reactions were initiated by addition of 25 μl of the thermostable luciferase stock solution above and mixing the tube contents. A 50 μl sample was immediately removed and placed in a luminometer tube and the light read and the tube then replaced in a tube rack at room temperature. While the light reading was being taken, a 5 μl sample of the remaining reaction (which was kept at room temperature) was diluted into 495 μl of 50 mM BisTris, pH 6.5, 1 mg/ml BSA, 1 mM EDTA prechilled to 4° C. and the tube mixed and placed on ice. The light produced by the samples in the luminometer tubes were re-read at 20, 40, 60, 90 and 120 minutes post enzyme addition. Additional 5 μl samples were taken and diluted as above at 60 and 120 minutes post enzyme addition. Once all these readings and samples were taken, 50 μl of the diluted samples was mixed with 50 μl of Steady Glo in luminometer tubes, the tubes incubated 10 minutes […] then the light produced was read on a Turner TD 20/20 luminometer.

[2] = tested on: thermostable luciferase (Luc 146-1H2); assay: Residual active thermostable luciferase after reaction with derivative (Steady Glo); type: biochemical
Protocol: as §1

Structure (SMILES): O=C(O)[C@H]1CSC(c2nc3ccc(OCCCl)cc3s2)=N1 [L’in-CEE]
- light reading of reaction sample ([1]; substrate 6.25, +Co A & DTT, 0 min): 77.35
- light reading of reaction sample ([1]; substrate 6.25, +Co A & DTT, 20 min): 7.958
- light reading of reaction sample ([1]; substrate 6.25, +Co A & DTT, 40 min): 3.656
- light reading of reaction sample ([1]; substrate 6.25, +Co A & DTT, 60 min): 2.312
- light reading of reaction sample ([1]; substrate 6.25, +Co A & DTT, 90 min): 1.414
- light reading of reaction sample ([1]; substrate 6.25, +Co A & DTT, 120 min): 1.134
- light reading of reaction sample ([1]; substrate 6.25, +Co A, 0 min): 1829
- light reading of reaction sample ([1]; substrate 6.25, +Co A, 20 min): 114
- light reading of reaction sample ([1]; substrate 6.25, +Co A, 40 min): 57.82
- light reading of reaction sample ([1]; substrate 6.25, +Co A, 60 min): 37.53
- light reading of reaction sample ([1]; substrate 6.25, +Co A, 90 min): 24.66
- light reading of reaction sample ([1]; substrate 6.25, +Co A, 120 min): 17.02
- light reading of reaction sample ([1]; substrate 6.25, +DTT, 0 min): 72.52
- light reading of reaction sample ([1]; substrate 6.25, +DTT, 20 min): 5.903
- light reading of reaction sample ([1]; substrate 6.25, +DTT, 40 min): 3.073
- light reading of reaction sample ([1]; substrate 6.25, +DTT, 60 min): 2.089
- light reading of reaction sample ([1]; substrate 6.25, +DTT, 90 min): 1.431
- light reading of reaction sample ([1]; substrate 6.25, +DTT, 120 min): 1.125
- light reading of reaction sample ([1]; substrate 6.25, Alone, 0 min): 121
- light reading of reaction sample ([1]; substrate 6.25, Alone, 20 min): 5.884
- light reading of reaction sample ([1]; substrate 6.25, Alone, 40 min): 3.316
- light reading of reaction sample ([1]; substrate 6.25, Alone, 60 min): 2.352
- light reading of reaction sample ([1]; substrate 6.25, Alone, 90 min): 1.569
- light reading of reaction sample ([1]; substrate 6.25, Alone, 120 min): 1.154
- light reading of reaction sample ([1]; substrate 25, +Co A & DTT, 0 min): 57.98
- light reading of reaction sample ([1]; substrate 25, +Co A & DTT, 20 min): 5.721
- light reading of reaction sample ([1]; substrate 25, +Co A & DTT, 40 min): 3.272
- light reading of reaction sample ([1]; substrate 25, +Co A & DTT, 60 min): 2.192
- light reading of reaction sample ([1]; substrate 25, +Co A & DTT, 90 min): 1.379
- light reading of reaction sample ([1]; substrate 25, +Co A & DTT, 120 min): 1.174
- light reading of reaction sample ([1]; substrate 25, +Co A, 0 min): 489.2
- light reading of reaction sample ([1]; substrate 25, +Co A, 20 min): 45.45
- light reading of reaction sample ([1]; substrate 25, +Co A, 40 min): 25.08
- light reading of reaction sample ([1]; substrate 25, +Co A, 60 min): 16.96
- light reading of reaction sample ([1]; substrate 25, +Co A, 90 min): 11.03
- light reading of reaction sample ([1]; substrate 25, +Co A, 120 min): 7.309
- light reading of reaction sample ([1]; substrate 25, +DTT, 0 min): 56.59
- light reading of reaction sample ([1]; substrate 25, +DTT, 20 min): 3.761
- light reading of reaction sample ([1]; substrate 25, +DTT, 40 min): 2.196
- light reading of reaction sample ([1]; substrate 25, +DTT, 60 min): 1.668
- light reading of reaction sample ([1]; substrate 25, +DTT, 90 min): 1.274
- light reading of reaction sample ([1]; substrate 25, +DTT, 120 min): 1.157
- light reading of reaction sample ([1]; substrate 25, Alone, 0 min): 59.87
- light reading of reaction sample ([1]; substrate 25, Alone, 20 min): 3.176
- light reading of reaction sample ([1]; substrate 25, Alone, 40 min): 1.919
- light reading of reaction sample ([1]; substrate 25, Alone, 60 min): 1.305
- light reading of reaction sample ([1]; substrate 25, Alone, 90 min): 1.178
- light reading of reaction sample ([1]; substrate 25, Alone, 120 min): 1.03
- light reading of reaction sample ([1]; substrate 100, +Co A & DTT, 0 min): 25.41
- light reading of reaction sample ([1]; substrate 100, +Co A & DTT, 20 min): 3.278
- light reading of reaction sample ([1]; substrate 100, +Co A & DTT, 40 min): 2.027
- light reading of reaction sample ([1]; substrate 100, +Co A & DTT, 60 min): 1.666
- light reading of reaction sample ([1]; substrate 100, +Co A & DTT, 90 min): 1.27
- light reading of reaction sample ([1]; substrate 100, +Co A & DTT, 120 min): 1.157
- light reading of reaction sample ([1]; substrate 100, +Co A, 0 min): 97.88
- light reading of reaction sample ([1]; substrate 100, +Co A, 20 min): 10.3
- light reading of reaction sample ([1]; substrate 100, +Co A, 40 min): 7.127
- light reading of reaction sample ([1]; substrate 100, +Co A, 60 min): 5.562
- light reading of reaction sample ([1]; substrate 100, +Co A, 90 min): 3.969
- light reading of reaction sample ([1]; substrate 100, +Co A, 120 min): 2.845
- light reading of reaction sample ([1]; substrate 100, +DTT, 0 min): 22.47
- light reading of reaction sample ([1]; substrate 100, +DTT, 20 min): 2.233
- light reading of reaction sample ([1]; substrate 100, +DTT, 40 min): 1.292
- light reading of reaction sample ([1]; substrate 100, +DTT, 60 min): 1.164
- light reading of reaction sample ([1]; substrate 100, +DTT, 90 min): 1.093
- light reading of reaction sample ([1]; substrate 100, +DTT, 120 min): 0.958
- light reading of reaction sample ([1]; substrate 100, Alone, 0 min): 20.46
- light reading of reaction sample ([1]; substrate 100, Alone, 20 min): 1.18
- light reading of reaction sample ([1]; substrate 100, Alone, 40 min): 0.868
- light reading of reaction sample ([1]; substrate 100, Alone, 60 min): 0.788
- light reading of reaction sample ([1]; substrate 100, Alone, 90 min): 0.627
- light reading of reaction sample ([1]; substrate 100, Alone, 120 min): 0.544
- light value of diluted reaction sample in Steady Glo ([2]; substrate 6.25, +Co A & DTT, sample taken 0 min): 1836
- light value of diluted reaction sample in Steady Glo ([2]; substrate 6.25, +Co A & DTT, sample taken 60 min): 1625
- light value of diluted reaction sample in Steady Glo ([2]; substrate 6.25, +Co A & DTT, sample taken 120 min): 1622
- light value of diluted reaction sample in Steady Glo ([2]; substrate 6.25, +Co A, sample taken 0 min): 1647
- light value of diluted reaction sample in Steady Glo ([2]; substrate 6.25, +Co A, sample taken 60 min): 976.8
- light value of diluted reaction sample in Steady Glo ([2]; substrate 6.25, +Co A, sample taken 120 min): 921.4
- light value of diluted reaction sample in Steady Glo ([2]; substrate 6.25, +DTT, sample taken 0 min): 1631
- light value of diluted reaction sample in Steady Glo ([2]; substrate 6.25, +DTT, sample taken 60 min): 1544
- light value of diluted reaction sample in Steady Glo ([2]; substrate 6.25, +DTT, sample taken 120 min): 1695
- light value of diluted reaction sample in Steady Glo ([2]; substrate 6.25, Alone, sample taken 0 min): 1402
- light value of diluted reaction sample in Steady Glo ([2]; substrate 6.25, Alone, sample taken 60 min): 1158
- light value of diluted reaction sample in Steady Glo ([2]; substrate 6.25, Alone, sample taken 120 min): 1073
- light value of diluted reaction sample in Steady Glo ([2]; substrate 25, +Co A & DTT, sample taken 0 min): 529.6
- light value of diluted reaction sample in Steady Glo ([2]; substrate 25, +Co A & DTT, sample taken 60 min): 1268
- light value of diluted reaction sample in Steady Glo ([2]; substrate 25, +Co A & DTT, sample taken 120 min): 1329
- light value of diluted reaction sample in Steady Glo ([2]; substrate 25, +Co A, sample taken 0 min): 1547
- light value of diluted reaction sample in Steady Glo ([2]; substrate 25, +Co A, sample taken 60 min): 777.5
- light value of diluted reaction sample in Steady Glo ([2]; substrate 25, +Co A, sample taken 120 min): 588.7
- light value of diluted reaction sample in Steady Glo ([2]; substrate 25, +DTT, sample taken 0 min): 1116
- light value of diluted reaction sample in Steady Glo ([2]; substrate 25, +DTT, sample taken 60 min): 1372
- light value of diluted reaction sample in Steady Glo ([2]; substrate 25, +DTT, sample taken 120 min): 1393
- light value of diluted reaction sample in Steady Glo ([2]; substrate 25, Alone, sample taken 0 min): 1345
- light value of diluted reaction sample in Steady Glo ([2]; substrate 25, Alone, sample taken 60 min): 973.4
- light value of diluted reaction sample in Steady Glo ([2]; substrate 25, Alone, sample taken 120 min): 860.3
- light value of diluted reaction sample in Steady Glo ([2]; substrate 100, +Co A & DTT, sample taken 0 min): 1745
- light value of diluted reaction sample in Steady Glo ([2]; substrate 100, +Co A & DTT, sample taken 60 min): 1319
- light value of diluted reaction sample in Steady Glo ([2]; substrate 100, +Co A & DTT, sample taken 120 min): 1343
- light value of diluted reaction sample in Steady Glo ([2]; substrate 100, +Co A, sample taken 0 min): 1127
- light value of diluted reaction sample in Steady Glo ([2]; substrate 100, +Co A, sample taken 60 min): 1055
- light value of diluted reaction sample in Steady Glo ([2]; substrate 100, +Co A, sample taken 120 min): 770.5
- light value of diluted reaction sample in Steady Glo ([2]; substrate 100, +DTT, sample taken 0 min): 1168
- light value of diluted reaction sample in Steady Glo ([2]; substrate 100, +DTT, sample taken 60 min): 501.5
- light value of diluted reaction sample in Steady Glo ([2]; substrate 100, +DTT, sample taken 120 min): 1478
- light value of diluted reaction sample in Steady Glo ([2]; substrate 100, Alone, sample taken 0 min): 1262
- light value of diluted reaction sample in Steady Glo ([2]; substrate 100, Alone, sample taken 60 min): 1203
- light value of diluted reaction sample in Steady Glo ([2]; substrate 100, Alone, sample taken 120 min): 1273
